Measurements from article doi:10.1101/2024.10.12.618019v1 (biorxiv, 2024).

Assays:
Assay in all cases: biochemical
[1] = target: 5HT2A (Homo sapiens, UniProt P28223)
[2] = target: D2 (Homo sapiens, UniProt P14416)
[3] = target: D1 (Homo sapiens, UniProt P21728)
[4] = target: T1, 5HT3 (Homo sapiens, UniProt P46098)
T1 sequence (P46098 1-478): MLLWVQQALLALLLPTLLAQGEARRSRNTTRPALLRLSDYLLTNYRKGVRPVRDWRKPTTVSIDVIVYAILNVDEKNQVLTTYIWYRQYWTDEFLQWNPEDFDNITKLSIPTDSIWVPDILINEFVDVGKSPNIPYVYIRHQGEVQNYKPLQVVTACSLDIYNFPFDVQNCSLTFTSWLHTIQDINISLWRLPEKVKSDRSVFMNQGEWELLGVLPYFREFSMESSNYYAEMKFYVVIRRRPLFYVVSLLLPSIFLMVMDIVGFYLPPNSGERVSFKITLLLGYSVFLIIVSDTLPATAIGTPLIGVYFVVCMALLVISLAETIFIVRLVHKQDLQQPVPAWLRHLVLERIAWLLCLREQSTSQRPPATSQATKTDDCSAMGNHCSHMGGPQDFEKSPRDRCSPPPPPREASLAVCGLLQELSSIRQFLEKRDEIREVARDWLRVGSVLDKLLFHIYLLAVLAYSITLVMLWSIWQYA

[5] = target: SERT (Homo sapiens, UniProt P31645)
[6] = target: 5HT6 (Homo sapiens, UniProt P50406)
Chain of 5HT6 (P50406 whole entry): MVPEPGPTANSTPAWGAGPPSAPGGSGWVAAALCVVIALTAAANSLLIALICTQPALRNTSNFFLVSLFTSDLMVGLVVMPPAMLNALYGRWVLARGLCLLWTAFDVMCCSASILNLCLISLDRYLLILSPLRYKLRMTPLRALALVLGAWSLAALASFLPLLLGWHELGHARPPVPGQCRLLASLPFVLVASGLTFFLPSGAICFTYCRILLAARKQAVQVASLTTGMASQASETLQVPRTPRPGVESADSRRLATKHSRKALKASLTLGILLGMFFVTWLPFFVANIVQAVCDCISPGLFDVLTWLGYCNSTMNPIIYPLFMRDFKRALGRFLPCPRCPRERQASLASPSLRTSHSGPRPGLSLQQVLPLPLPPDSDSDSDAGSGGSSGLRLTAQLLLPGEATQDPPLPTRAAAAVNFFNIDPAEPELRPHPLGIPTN

[7] = target: T2, 5HT1A (Homo sapiens, UniProt P08908)
T2 sequence (P08908 1-422): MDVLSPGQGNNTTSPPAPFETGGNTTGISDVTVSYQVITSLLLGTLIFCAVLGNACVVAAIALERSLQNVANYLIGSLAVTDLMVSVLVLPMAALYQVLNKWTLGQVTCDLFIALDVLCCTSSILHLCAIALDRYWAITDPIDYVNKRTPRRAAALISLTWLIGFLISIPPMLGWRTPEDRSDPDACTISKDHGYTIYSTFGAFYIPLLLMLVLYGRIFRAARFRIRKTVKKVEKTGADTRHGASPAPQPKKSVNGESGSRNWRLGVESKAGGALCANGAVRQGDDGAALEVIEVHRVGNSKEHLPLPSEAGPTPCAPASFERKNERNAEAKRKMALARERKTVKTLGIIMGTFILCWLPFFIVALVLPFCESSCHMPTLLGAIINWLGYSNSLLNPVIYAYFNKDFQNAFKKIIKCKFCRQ

[8] = target: H4 (Homo sapiens, UniProt Q9H3N8)
Chain of H4 (Q9H3N8 whole entry): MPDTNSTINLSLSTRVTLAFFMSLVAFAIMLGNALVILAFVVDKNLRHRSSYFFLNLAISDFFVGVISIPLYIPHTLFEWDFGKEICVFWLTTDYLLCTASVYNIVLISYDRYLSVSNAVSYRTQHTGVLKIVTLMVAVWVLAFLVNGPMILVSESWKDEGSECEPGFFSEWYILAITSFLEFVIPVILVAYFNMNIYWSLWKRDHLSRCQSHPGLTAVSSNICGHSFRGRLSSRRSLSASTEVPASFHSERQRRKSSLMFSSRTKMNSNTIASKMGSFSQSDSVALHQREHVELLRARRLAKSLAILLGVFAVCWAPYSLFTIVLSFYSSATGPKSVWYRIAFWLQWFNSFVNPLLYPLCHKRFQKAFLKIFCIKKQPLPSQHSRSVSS

[9] = target: 5HT7A (Homo sapiens, UniProt P34969)
Chain of 5HT7A (P34969 whole entry): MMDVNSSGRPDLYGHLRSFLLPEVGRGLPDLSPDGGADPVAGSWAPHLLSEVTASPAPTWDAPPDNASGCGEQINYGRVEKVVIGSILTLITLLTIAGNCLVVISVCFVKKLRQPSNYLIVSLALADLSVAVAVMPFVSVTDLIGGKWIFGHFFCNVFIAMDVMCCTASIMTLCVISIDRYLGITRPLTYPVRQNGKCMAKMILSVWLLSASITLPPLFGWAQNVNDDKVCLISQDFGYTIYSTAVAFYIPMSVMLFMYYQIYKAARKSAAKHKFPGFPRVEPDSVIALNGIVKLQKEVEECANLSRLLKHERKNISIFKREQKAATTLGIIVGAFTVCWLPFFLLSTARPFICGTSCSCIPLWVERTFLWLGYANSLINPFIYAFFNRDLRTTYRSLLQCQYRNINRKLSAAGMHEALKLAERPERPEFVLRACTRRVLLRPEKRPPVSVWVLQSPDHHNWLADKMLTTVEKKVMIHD

[10] = target: T3, D4 (Homo sapiens, UniProt P21917)
T3 sequence (P21917 1-419): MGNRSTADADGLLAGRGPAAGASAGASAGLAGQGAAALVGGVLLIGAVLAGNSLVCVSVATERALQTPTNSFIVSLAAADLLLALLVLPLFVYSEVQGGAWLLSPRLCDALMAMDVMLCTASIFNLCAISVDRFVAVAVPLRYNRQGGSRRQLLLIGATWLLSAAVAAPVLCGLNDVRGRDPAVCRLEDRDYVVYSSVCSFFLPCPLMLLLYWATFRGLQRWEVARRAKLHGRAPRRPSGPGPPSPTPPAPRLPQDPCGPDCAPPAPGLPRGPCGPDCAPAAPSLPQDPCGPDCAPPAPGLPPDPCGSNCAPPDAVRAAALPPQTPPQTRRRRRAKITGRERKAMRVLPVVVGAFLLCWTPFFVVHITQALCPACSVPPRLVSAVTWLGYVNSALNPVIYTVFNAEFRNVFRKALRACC

[11] = target: T4, 5HT2C (Homo sapiens, UniProt P28335)
T4 sequence (P28335 1-458): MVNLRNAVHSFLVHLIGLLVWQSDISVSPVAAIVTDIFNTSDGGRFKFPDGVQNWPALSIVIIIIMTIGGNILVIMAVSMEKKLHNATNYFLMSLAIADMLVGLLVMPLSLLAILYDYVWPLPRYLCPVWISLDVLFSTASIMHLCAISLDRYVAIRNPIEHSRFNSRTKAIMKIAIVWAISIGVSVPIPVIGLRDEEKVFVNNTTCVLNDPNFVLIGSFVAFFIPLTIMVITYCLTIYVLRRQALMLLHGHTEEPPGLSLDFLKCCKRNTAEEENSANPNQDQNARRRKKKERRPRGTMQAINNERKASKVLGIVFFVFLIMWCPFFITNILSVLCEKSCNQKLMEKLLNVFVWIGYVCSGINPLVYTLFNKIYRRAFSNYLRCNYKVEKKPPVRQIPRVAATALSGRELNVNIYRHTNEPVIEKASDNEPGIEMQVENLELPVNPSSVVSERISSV

[12] = target: H1 (Homo sapiens, UniProt P35367)
[13] = target: D3 (Homo sapiens, UniProt P35462)
Chain of D3 (P35462 whole entry): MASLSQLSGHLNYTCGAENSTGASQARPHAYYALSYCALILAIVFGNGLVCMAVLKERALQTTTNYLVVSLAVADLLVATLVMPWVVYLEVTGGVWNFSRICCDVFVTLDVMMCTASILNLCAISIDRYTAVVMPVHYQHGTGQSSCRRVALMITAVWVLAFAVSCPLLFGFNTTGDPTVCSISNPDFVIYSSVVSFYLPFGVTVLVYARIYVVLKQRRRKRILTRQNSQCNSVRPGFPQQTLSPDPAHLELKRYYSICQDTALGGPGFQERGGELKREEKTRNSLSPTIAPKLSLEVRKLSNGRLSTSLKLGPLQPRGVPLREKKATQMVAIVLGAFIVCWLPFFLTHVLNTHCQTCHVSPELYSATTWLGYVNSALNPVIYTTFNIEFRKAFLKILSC

[14] = target: DAT (Homo sapiens, UniProt Q01959)
Chain of DAT (Q01959 whole entry): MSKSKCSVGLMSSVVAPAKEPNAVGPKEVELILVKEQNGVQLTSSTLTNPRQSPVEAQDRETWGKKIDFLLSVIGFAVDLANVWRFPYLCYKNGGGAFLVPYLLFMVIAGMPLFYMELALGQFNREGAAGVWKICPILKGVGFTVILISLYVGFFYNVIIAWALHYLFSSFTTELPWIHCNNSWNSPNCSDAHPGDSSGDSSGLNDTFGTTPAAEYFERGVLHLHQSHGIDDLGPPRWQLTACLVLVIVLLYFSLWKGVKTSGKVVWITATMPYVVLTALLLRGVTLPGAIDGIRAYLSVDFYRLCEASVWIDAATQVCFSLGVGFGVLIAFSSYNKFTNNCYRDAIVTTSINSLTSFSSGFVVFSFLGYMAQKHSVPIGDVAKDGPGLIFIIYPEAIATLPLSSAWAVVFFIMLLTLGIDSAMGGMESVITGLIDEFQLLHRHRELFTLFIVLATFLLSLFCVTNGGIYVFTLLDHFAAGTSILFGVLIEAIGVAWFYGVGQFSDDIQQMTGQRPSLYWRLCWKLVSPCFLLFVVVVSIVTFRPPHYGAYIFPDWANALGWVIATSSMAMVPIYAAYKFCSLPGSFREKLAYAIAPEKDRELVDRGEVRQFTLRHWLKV

[15] = target: NOP (Homo sapiens, UniProt P41146)
[16] = target: 5HT5A (Homo sapiens, UniProt P47898)
Chain of 5HT5A (P47898 whole entry): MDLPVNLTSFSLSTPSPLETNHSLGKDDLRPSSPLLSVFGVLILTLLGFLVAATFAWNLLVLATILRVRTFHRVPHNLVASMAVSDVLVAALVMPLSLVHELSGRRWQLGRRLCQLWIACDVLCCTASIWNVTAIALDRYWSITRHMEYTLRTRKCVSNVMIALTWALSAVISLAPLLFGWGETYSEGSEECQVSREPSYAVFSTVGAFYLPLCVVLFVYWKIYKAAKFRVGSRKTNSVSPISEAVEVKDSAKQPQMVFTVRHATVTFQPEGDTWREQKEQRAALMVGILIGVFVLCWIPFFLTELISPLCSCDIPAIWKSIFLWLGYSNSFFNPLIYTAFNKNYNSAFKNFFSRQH

[17] = target: D5 (Homo sapiens, UniProt P21918)
Chain of D5 (P21918 whole entry): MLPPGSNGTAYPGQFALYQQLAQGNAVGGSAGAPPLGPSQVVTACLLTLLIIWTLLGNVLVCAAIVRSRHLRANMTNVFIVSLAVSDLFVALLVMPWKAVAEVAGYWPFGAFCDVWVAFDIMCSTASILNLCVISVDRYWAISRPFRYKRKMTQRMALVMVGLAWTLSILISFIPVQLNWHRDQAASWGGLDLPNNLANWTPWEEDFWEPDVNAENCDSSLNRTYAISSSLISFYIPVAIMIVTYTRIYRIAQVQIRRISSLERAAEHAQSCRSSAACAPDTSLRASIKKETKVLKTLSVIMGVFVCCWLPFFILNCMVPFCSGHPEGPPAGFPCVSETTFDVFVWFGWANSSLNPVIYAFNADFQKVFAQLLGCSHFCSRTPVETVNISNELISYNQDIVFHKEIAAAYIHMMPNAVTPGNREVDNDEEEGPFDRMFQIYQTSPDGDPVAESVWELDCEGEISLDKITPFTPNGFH

[18] = target: 5HT2B (Homo sapiens, UniProt P41595)
[19] = target: 5HT1D (Homo sapiens, UniProt P28221)
[20] = target: MOR (Homo sapiens, UniProt P35372)
Chain of MOR (P35372 whole entry): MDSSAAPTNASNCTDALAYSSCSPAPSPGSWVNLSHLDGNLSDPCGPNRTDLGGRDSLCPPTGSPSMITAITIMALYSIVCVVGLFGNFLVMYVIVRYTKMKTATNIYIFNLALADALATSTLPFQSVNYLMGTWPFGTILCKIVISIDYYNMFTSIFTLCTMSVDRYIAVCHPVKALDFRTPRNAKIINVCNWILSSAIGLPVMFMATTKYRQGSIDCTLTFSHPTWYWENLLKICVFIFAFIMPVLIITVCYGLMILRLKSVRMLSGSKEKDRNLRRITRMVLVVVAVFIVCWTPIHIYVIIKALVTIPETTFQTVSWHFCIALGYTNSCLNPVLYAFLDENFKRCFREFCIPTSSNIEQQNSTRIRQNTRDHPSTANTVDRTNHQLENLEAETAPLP

[21] = target: 5HT1E (Homo sapiens, UniProt P28566)
[22] = target: DOR (Homo sapiens, UniProt P41143)
[23] = target: 5HT1B (Homo sapiens, UniProt P28222)

Chain of 5HT2A (P28223 whole entry): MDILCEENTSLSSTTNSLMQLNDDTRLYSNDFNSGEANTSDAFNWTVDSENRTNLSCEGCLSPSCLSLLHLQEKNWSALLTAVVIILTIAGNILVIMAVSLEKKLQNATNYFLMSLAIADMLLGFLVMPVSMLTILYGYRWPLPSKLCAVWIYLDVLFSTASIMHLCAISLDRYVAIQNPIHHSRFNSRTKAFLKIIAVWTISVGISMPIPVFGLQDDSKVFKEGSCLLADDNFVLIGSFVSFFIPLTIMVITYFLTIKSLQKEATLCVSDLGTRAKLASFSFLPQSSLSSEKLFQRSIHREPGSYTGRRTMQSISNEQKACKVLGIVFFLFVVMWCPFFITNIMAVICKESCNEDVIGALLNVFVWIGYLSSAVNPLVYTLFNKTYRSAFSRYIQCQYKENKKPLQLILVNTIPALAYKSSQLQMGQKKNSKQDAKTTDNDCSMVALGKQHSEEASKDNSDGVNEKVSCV
Chain of D1 (P21728 whole entry): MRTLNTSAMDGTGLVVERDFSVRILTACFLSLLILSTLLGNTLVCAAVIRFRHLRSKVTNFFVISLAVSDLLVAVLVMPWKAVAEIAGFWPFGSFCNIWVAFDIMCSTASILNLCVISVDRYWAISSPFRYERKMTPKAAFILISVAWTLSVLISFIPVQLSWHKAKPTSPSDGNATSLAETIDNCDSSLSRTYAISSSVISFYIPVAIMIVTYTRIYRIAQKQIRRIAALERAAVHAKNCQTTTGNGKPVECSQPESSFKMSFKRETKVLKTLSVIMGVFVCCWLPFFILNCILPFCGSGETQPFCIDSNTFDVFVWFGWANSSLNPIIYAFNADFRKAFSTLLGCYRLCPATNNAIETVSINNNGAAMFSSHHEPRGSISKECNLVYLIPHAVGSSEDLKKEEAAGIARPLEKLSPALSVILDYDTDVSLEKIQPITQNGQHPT
Chain of D2 (P14416 whole entry): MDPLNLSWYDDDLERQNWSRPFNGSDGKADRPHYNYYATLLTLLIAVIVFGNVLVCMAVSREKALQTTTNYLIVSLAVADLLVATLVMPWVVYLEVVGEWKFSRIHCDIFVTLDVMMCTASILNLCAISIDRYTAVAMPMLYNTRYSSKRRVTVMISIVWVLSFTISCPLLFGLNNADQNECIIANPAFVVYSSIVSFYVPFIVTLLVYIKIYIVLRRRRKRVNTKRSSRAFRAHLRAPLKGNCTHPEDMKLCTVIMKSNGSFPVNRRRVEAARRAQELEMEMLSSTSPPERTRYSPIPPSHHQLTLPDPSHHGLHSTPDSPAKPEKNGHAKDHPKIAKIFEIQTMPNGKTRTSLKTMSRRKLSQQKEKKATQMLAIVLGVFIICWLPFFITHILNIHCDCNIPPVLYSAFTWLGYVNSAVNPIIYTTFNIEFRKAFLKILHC

SMILES | Ki [1] [nM] | Ki [2] [nM] | Ki [3] [nM] | Ki [4] [nM] | Ki [5] [nM] | Ki [6] [nM] | Ki [7] [nM] | Ki [8] [nM] | Ki [9] [nM] | Ki [10] [nM] | Ki [11] [nM] | Ki [12] [nM] | Ki [13] [nM] | Ki [14] [nM] | Ki [15] [nM] | Ki [16] [nM] | Ki [17] [nM] | Ki [18] [nM] | Ki [19] [nM] | Ki [20] [nM] | other results
Cc1cc(-c2cc(F)c(CNC3Cc4ccccc4C3)c(F)c2)cc(-c2ncn[nH]2)c1 [4A] | > 10000 | > 10000 | 1870 | > 10000 | 334 | > 10000 | > 10000 | > 10000 | > 10000 | 1770 | > 10000 | > 10000 | > 10000 | 497 | > 10000 | > 10000 | > 10000 | 484 | – | – | –
Cc1cc(-c2ccc(CNC3Cc4ccccc4C3)cc2)cc(-c2nc[nH]n2)c1 [6A] | 1000 | > 10000 | 716 | > 10000 | 130 | > 10000 | > 10000 | > 10000 | 747 | 1770 | 470 | 1450 | > 10000 | 287 | 167 | 3940 | > 10000 | 826 | 1320 | 4.2 | Ki [21]: > 10000 nM; Ki [22]: 98 nM
Cc1cc(C(N)=O)cc(-c2cc(F)c(CNC3Cc4ccccc4C3)c(F)c2)c1 [1A] | > 10000 | 6530 | 998 | > 10000 | 523 | > 10000 | > 10000 | > 10000 | > 10000 | 594 | > 10000 | > 10000 | 466 | 533 | > 10000 | > 10000 | > 10000 | > 10000 | – | 8.3 | Ki [21]: > 10000 nM
Cc1cc(-c2ccc(CNC3Cc4ccccc4C3)c(F)c2)cc(-c2ncn[nH]2)c1 [5A] | 1020 | > 10000 | 1270 | > 10000 | 116 | > 10000 | > 10000 | > 10000 | 707 | 5500 | > 10000 | 6180 | 181 | 303 | 560 | 8040 | > 10000 | 948 | 1420 | – | Ki [23]: 3480 nM; Ki [21]: > 10000 nM
Cc1cc(C(N)=O)cc(-c2ccc(CNC3Cc4ccccc4C3)cc2)c1 [3A] | > 10000 | > 10000 | 1320 | > 10000 | 310 | > 10000 | > 10000 | > 10000 | 977 | 27.2 | 2270 | > 10000 | > 10000 | 850 | > 10000 | > 10000 | > 10000 | > 10000 | > 10000 | 7.8 | –
Cc1cc(C(N)=O)cc(-c2ccc(CNC3Cc4ccccc4C3)c(F)c2)c1 [2A] | > 10000 | > 10000 | 1270 | > 10000 | 174 | > 10000 | > 10000 | > 10000 | 891 | 748 | > 10000 | > 10000 | 748 | – | > 10000 | > 10000 | > 10000 | > 10000 | 1660 | 9.2 | Ki [21]: > 10000 nM; Ki [22]: 350 nM
